pEC50: −log10 of the molar value. Where “and” joins values, the source holds several entries; their conditions need not be identical. Identical values can stand only once.
Columns and labels:
[1] = target: T1, T7 Lig-C-HiBiT (DNA ligase) (Escherichia phage T7, UniProt P00969); assay: SDR assay (aqueous ligand dispense), T7 Lig-C-HiBiT; conditions: for SDR assay data: 1 nM T7 Lig-C-HiBiT; for SDR assay data / SDR response: Log [ATP]; for SDR response: replicates
T1 sequence (P00969 2-359): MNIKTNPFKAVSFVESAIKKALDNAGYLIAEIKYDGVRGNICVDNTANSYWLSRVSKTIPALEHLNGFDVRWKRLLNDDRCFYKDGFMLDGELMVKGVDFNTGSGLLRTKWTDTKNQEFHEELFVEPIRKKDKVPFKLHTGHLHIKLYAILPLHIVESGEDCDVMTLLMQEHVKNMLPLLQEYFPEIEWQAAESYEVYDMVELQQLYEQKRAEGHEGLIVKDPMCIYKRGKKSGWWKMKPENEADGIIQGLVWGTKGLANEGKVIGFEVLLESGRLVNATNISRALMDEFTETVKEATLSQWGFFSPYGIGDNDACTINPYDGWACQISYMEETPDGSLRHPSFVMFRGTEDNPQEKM

[2] = target: T2, T7 Lig-N-HiBiT (DNA ligase) (Escherichia phage T7, UniProt P00969); assay: SDR assay (aqueous ligand dispense), T7 Lig-N-HiBiT; conditions: for SDR assay data: 1 nM T7 Lig-N-HiBiT; for SDR assay data / SDR response: Log [ATP]; for SDR response: replicates
T2 sequence (P00969 2-359): T1 sequence (P00969 2-359)

[3] = tested on: E. coli Lig-C-HiBiT (DNA ligase); assay: SDR assay (aqueous ligand dispense), E. coli Lig-C-HiBiT; conditions: for SDR assay data: 1 nM E. coli Lig-C-HiBiT; for SDR assay data / SDR response: Log [ATP]; for SDR response: replicates
[4] = T7 Lig-C-HiBiT (1 nM), ligand 100 µM
[5] = T7 Lig-N-HiBiT (1 nM), ligand 100 µM
[6] = E. coli Lig-C-HiBiT (1.0 nM), ligand 100 µM

`Nc1ncnc2c1ncn2[C@@H]1O[C@H](COP(=O)(O)OP(=O)(O)OP(=O)(O)O)[C@@H](O)[C@H]1O` [ATP] was tested, and the pEC50 [1] was at most 4.00, the SDR assay data ([1]; M -2.85) was 216.5 and 209.6 and 219.5 and the SDR assay data ([1]; M -3.15) was 141.4 and 163.1 and 159.6. The SDR assay data ([1]; M -3.45) was 83.0 and 105.1 and 112.1, the SDR assay data ([1]; M -3.75) was 54.1 and 71.7 and 73.7 and the SDR assay data ([1]; M -4.35) was 22.4 and 27.8 and 30.1. The SDR assay data ([1]; M -4.65) was 18.5 and 22.1 and 22.3, the SDR assay data ([1]; M -4.95) was 14.4 and 13.8 and the SDR assay data ([1]; M -5.25) was 9.3 and 8.9. For the same compound, the SDR assay data ([1]; M -5.55) was 9.2 and 6.3, the SDR assay data ([1]; M -6.16) was 7.3 and 4.5 and the SDR assay data ([1]; M -6.46) was 6.2 and 3.9 and 5.5. The SDR response ([1]; M -2.85) was 216.5 and 209.6 and 219.5, the SDR response ([1]; M -3.15) was 141.4 and 163.1 and 159.6 and the SDR response ([1]; M -3.45) was 83.0 and 105.1 and 112.1. The SDR response ([1]; M -3.75) was 54.1 and 71.7 and 73.7, the SDR response ([1]; M -4.05) was 18.5 and 46.9 and 44.7 and the SDR response ([1]; M -4.35) was 22.4 and 27.8 and 30.1. For the same compound, the SDR response ([1]; M -4.65) was 18.5 and 22.1 and 22.3, the SDR response ([1]; M -4.95) was 14.4 and 13.8 and the SDR response ([1]; M -5.25) was 9.3 and 8.9. The SDR response ([1]; M -5.55) was 9.2 and 6.3, the SDR response ([1]; M -5.86) was 6.9 and 3.3 and 6.8 and the SDR response ([1]; M -6.16) was 7.3 and 4.5. For the same compound, the SDR response ([1]; M -6.46) was 6.2 and 3.9 and 5.5, the SDR response ([1]; M -6.76) was 4.6 and 1.8 and 4.9 and the “SDR assay response (in words)” value ([1]; T7 Lig-C-HiBiT) was “strong SDR signal”. The “SDR assay statistics Ave RLU” value [1, 4] was 70.8 RLU, the “SDR assay statistics S:B” value [1, 4] was 1.4 and the “SDR assay statistics Z’” value [1, 4] was -0.186. The max resp ([1]; T7 Lig-C-HiBiT, maximum response) was 215.2, the pEC50 [2] was at most 4.00 and the SDR assay data ([2]; M -2.85) was 436.8 and 379.9 and 405.2. For the same compound, the SDR assay data ([2]; M -3.15) was 279.5 and 253.1 and 256.0, the SDR assay data ([2]; M -3.45) was 148.4 and 136.3 and 161.1 and the SDR assay data ([2]; M -3.75) was 97.7 and 88.5 and 106.1. For the same compound, the SDR assay data ([2]; M -4.05) was 63.0 and 57.2 and 69.3, the SDR assay data ([2]; M -4.35) was 47.1 and 49.4 and 60.4 and the SDR assay data ([2]; M -4.65) was 42.9 and 27.8 and 47.0. For the same compound, the SDR assay data ([2]; M -4.95) was 31.1 and 25.7 and 35.7, the SDR assay data ([2]; M -5.55) was 21.1 and 18.2 and 32.8 and the SDR assay data ([2]; M -6.46) was 17.8 and 13.4 and 26.6. The SDR assay data ([2]; M -6.76) was 16.5 and 24.2 and 25.4, the SDR response ([2]; M -2.85) was 405.2 and 436.8 and 379.9 and the SDR response ([2]; M -3.15) was 256.0 and 279.5 and 253.1. The SDR response ([2]; M -3.45) was 161.1 and 148.4 and 136.3, the SDR response ([2]; M -3.75) was 106.1 and 97.7 and 88.5 and the SDR response ([2]; M -4.05) was 69.3 and 63.0 and 57.2. For the same compound, the SDR response ([2]; M -4.35) was 60.4 and 47.1 and 49.4, the SDR response ([2]; M -4.65) was 47.0 and 42.9 and 27.8 and the SDR response ([2]; M -4.95) was 35.7 and 31.1 and 25.7. The SDR response ([2]; M -5.25) was 40.3 and 24.1 and 20.1, the SDR response ([2]; M -5.55) was 32.8 and 21.1 and 18.2 and the SDR response ([2]; M -5.86) was 31.3 and 18.8. For the same compound, the SDR response ([2]; M -6.16) was 32.1 and 13.9 and 17.4, the SDR response ([2]; M -6.46) was 26.6 and 17.8 and 13.4 and the SDR response ([2]; M -6.76) was 25.4 and 16.5 and 24.2. The “SDR assay response (in words)” value ([2]; T7 Lig-N-HiBiT) was “strong SDR signal”, the “SDR assay statistics Ave RLU” value [2, 5] was 88.7 RLU and the “SDR assay statistics S:B” value [2, 5] was 2.0. For the same compound, the “SDR assay statistics S:N” value [2, 5] was 5.7, the “SDR assay statistics Z’” value [2, 5] was 0.337 and the max resp ([2]; T7 Lig-N-HiBiT, maximum response) was 407.3. The SDR assay data ([3]; M -3.15) was 6.4 and 7.5 and 12.8, the SDR assay data ([3]; M -3.75) was 7.0 and 9.1 and the SDR assay data ([3]; M -4.05) was 6.9 and 5.8 and 9.6. The SDR assay data ([3]; M -6.76) was 5.3 and 6.4 and 8.6, the “SDR assay statistics Ave RLU” value [3, 6] was 2214.0 RLU and the “SDR assay statistics S:B” value [3, 6] was 1.1. The max resp ([3]; E. coli Lig-C-HiBiT, maximum response) was 7.8, the SDR response ([3]; M -2.85) was 4.8 and 10.7 and the SDR response ([3]; M -3.15) was 6.4 and 12.8. The SDR response ([3]; M -3.45) was 4.5 and 9.6, the SDR response ([3]; M -3.75) was 7.0 and 9.1 and the SDR response ([3]; M -4.05) was 6.9 and 5.8 and 9.6. For the same compound, the SDR response ([3]; M -4.35) was 9.4 and 4.6 and 6.2, the SDR response ([3]; M -4.65) was 10.2 and 2.5 and the SDR response ([3]; M -4.95) was 10.5 and 2.6. The SDR response ([3]; M -5.25) was 4.4 and 2.6 and 13.4, the SDR response ([3]; M -5.55) was 1.7 and 7.1 and the SDR response ([3]; M -5.86) was 5.9. The SDR response ([3]; M -6.16) was 9.8 and 1.1 and 5.3, the SDR response ([3]; M -6.46) was 6.3 and 0.236 and 4.6 and the SDR response ([3]; M -6.76) was 5.3 and 6.4.
